Data: paper PMC9147192, “Small Molecule Arranged Thermal Proximity Coaggregation (smarTPCA)—A Novel Approach to Characterize Protein–Protein Interactions in Living Cells by Similar Isothermal Dose–Responses” (International Journal of Molecular Sciences, 2022)

Tests used:
Assay in all cases: TPP-CCR in living HL-60 cells
Format in all cases: cell-based
[1] = biological target: T1, CANX (Homo sapiens, UniProt P27824)
T1 construct: endogenous in cells; host or cells: HL-60 (ATCC CCL-240)
T1 sequence (P27824 21-592): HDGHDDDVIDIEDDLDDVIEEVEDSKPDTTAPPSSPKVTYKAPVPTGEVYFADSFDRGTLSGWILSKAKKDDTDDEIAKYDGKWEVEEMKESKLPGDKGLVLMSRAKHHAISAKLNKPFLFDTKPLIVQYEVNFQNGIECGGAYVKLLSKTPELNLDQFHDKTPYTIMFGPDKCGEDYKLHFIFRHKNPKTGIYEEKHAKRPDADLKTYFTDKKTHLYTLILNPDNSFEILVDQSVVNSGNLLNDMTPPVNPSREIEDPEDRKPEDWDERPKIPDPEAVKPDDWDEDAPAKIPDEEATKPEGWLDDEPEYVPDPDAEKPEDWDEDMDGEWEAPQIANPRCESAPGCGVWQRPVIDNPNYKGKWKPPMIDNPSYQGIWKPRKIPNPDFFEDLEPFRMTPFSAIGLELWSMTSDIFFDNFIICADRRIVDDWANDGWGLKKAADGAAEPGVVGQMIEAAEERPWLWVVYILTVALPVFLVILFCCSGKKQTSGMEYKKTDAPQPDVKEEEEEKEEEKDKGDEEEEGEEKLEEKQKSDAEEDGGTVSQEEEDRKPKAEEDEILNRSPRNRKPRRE

[2] = biological target: T2, RARS (Homo sapiens, UniProt P54136)
T2 construct: endogenous in cells; host or cells: HL-60 (ATCC CCL-240)
T2 sequence (P54136 1-660): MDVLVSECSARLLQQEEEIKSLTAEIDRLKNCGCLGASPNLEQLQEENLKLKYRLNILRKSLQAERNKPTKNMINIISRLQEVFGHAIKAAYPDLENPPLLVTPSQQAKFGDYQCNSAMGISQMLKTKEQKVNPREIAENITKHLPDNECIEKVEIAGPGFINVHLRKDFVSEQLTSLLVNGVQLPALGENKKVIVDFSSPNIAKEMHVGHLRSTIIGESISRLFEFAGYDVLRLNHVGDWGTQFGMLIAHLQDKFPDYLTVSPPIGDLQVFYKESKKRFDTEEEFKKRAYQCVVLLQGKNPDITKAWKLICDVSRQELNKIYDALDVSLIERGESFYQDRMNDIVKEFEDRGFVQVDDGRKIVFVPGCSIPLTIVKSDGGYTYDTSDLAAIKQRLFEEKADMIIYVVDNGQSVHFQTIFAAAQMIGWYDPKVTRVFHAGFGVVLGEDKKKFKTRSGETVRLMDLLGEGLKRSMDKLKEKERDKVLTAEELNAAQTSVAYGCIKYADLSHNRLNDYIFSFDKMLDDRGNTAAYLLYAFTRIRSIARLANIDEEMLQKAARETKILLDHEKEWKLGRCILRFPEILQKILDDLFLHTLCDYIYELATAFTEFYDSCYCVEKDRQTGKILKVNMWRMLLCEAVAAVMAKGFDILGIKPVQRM

[3] = biological target: T3, MIA3 (Homo sapiens, UniProt Q5JRA6)
T3 construct: endogenous in cells; host or cells: HL-60 (ATCC CCL-240)
T3 sequence (Q5JRA6 23-1907): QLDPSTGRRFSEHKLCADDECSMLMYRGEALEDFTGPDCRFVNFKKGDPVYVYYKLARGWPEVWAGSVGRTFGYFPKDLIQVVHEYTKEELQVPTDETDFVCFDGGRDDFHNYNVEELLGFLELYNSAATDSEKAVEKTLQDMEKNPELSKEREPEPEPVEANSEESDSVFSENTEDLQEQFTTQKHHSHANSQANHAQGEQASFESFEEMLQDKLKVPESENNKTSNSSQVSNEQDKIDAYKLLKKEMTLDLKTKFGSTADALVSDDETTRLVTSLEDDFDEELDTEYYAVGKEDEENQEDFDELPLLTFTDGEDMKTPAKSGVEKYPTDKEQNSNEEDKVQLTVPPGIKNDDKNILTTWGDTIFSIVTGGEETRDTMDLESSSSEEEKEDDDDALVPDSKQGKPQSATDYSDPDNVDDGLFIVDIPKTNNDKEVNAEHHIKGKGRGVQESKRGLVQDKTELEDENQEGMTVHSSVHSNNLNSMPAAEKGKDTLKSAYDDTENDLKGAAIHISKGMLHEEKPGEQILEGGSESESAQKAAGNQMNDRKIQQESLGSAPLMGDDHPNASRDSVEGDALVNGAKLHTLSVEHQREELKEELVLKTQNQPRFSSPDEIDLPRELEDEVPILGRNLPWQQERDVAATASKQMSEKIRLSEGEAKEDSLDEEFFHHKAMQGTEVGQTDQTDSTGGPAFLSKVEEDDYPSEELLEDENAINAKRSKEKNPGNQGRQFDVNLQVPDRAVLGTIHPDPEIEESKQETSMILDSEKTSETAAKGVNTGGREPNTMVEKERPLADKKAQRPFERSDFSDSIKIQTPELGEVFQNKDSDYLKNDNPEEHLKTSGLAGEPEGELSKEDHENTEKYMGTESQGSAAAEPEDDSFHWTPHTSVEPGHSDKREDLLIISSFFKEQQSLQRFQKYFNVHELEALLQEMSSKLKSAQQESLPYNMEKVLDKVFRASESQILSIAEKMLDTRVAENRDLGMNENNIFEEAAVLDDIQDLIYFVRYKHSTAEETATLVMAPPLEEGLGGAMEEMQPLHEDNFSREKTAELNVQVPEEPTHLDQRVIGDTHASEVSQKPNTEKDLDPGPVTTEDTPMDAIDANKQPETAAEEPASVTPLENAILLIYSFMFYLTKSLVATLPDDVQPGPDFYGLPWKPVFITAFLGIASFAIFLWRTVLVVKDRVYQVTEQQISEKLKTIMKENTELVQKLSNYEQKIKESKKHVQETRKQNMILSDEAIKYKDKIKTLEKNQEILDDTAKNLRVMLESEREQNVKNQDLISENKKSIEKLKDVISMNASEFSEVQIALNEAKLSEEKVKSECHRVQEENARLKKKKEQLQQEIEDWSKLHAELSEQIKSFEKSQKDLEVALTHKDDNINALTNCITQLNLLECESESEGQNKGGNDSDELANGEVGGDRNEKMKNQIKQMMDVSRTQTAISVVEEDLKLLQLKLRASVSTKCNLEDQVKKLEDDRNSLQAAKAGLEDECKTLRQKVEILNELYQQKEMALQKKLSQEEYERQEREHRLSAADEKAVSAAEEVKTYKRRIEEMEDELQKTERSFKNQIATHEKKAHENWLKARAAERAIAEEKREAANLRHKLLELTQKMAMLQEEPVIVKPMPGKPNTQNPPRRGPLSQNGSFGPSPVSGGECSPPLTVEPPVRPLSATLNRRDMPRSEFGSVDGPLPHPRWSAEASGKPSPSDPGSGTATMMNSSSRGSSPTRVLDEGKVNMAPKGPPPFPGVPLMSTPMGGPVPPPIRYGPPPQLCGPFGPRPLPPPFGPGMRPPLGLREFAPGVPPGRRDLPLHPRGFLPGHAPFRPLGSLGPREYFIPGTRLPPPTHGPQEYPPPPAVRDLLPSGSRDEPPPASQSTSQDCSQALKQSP

[4] = living HL-60 cells, […] °C, TMT-MS

Cc1cnc(Nc2ccc(F)cc2Cl)nc1-c1c[nH]c(C(=O)N[C@H](CO)c2cccc(Cl)c2)c1 [ERK 11e]
Hill slope ([1]; TPP-CCR, living cells, CANX): 0.80 | EC50 [1, 4]: 871 nM | Hill slope (CANX) [1, 4]: 0.80 | Hill slope ([2]; TPP-CCR, living cells, RARS): 0.38 | EC50 [2, 4]: 83.2 nM | Hill slope (RARS) [2, 4]: 0.38 | Hill slope ([3]; TPP-CCR, living cells, MIA3): 0.98 | Hill slope (MIA3) [3, 4]: 0.98 | EC50 ([3]; living HL-60 cells, […] °C, TMT-MS, read-out: pEC50 (MIA3) (converted)): 3390 nM
